Results from ChEMBL document CHEMBL1201862, “PubChem BioAssay data set” (2004).
Active and inactive are the calls of the source.

Legend:
Mu-type opioid receptor = Mu-type opioid receptor (Homo sapiens, UniProt P35372); experiment: (§1) Counterscreen for agonists of heterodimerization of the mu 1 (OPRM1) and delta 1 (OPRD1) opioid receptors: Luminescence-based cell-based high throughput dose response assay to identify agonists of OPRM1 homodimerization.; type: functional
[1] = target: 5-hydroxytryptamine receptor 5A (Homo sapiens, UniProt P47898); experiment: Counterscreen for agonists of OPRM1-OPRD1 heterodimerization: luminescence-based cell-based high throughput dose response assay to identify agonists of 5-hydroxytryptamine (serotonin) 5A receptor (HTR5A). [Related pubchem assays (depositor defined):AID504326, AID504355, AID504692, AID504904, AID504905]; type: functional
5-hydroxytryptamine receptor 5A, sequence (P47898 whole entry): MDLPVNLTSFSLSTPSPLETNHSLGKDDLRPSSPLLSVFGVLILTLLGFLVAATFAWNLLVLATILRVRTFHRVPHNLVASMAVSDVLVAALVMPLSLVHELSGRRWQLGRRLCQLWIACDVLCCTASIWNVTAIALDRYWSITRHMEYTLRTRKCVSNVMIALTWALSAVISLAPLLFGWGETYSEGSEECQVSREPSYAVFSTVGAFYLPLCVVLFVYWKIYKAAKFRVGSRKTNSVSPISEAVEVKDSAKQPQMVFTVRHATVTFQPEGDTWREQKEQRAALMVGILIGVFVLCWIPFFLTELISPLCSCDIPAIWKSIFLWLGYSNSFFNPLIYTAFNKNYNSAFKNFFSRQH

[2] = target: Delta-type opioid receptor (Homo sapiens, UniProt P41143); experiment: as §1, with “of OPRD1” for “of OPRM1”, “homodimerization. [Related pubchem assays (depositor defined):AID504326, AID504355, AID504692, AID504904, AID504905]” for “homodimerization.”; type: functional
Delta-type opioid receptor, sequence (P41143 whole entry): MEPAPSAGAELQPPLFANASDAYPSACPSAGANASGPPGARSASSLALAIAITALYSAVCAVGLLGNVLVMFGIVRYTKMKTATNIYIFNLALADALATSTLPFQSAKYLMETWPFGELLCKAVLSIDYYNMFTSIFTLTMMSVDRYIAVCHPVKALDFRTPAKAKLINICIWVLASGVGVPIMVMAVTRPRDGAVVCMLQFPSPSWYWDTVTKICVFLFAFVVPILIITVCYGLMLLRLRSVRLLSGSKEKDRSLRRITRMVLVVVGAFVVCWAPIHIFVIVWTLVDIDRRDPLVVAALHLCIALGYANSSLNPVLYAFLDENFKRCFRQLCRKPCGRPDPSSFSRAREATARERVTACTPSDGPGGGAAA

[3] = target: T1, Short transient receptor potential channel 4 (Mus musculus, UniProt Q9QUQ5); experiment: mouse TRPC4 channel activators, dose response, cell-based, HEK293 TRPC4/mu-opioid, Fluo-4 calcium (AID 434937); type: functional
T1 sequence (Q9QUQ5 whole entry): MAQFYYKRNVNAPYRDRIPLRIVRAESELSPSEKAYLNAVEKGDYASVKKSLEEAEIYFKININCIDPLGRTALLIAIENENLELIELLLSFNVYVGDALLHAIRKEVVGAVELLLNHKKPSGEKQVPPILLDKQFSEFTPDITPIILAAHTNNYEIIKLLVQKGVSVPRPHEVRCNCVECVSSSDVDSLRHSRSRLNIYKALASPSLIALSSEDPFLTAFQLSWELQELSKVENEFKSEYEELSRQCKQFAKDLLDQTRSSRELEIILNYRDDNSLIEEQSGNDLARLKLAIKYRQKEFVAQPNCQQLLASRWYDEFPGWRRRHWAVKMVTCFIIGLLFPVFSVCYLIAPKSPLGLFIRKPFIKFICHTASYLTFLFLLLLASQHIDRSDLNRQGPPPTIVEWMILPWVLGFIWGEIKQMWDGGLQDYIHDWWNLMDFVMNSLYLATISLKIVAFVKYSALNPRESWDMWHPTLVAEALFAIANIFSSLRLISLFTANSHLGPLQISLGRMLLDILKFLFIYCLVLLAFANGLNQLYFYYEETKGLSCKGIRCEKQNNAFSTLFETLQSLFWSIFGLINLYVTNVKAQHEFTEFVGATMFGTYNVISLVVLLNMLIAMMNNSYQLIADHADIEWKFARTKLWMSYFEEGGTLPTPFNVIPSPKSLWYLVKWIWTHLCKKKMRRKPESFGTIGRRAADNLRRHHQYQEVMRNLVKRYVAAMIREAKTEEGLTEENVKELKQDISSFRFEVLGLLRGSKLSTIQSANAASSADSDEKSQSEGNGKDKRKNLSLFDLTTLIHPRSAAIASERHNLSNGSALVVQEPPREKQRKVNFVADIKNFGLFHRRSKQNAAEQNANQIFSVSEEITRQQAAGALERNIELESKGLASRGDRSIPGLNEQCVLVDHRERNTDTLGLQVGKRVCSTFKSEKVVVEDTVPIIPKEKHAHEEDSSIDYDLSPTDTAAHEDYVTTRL

Escherichia coli [4] = experiment: microbe, parasite or virus in culture
HEK293 [5] = experiment: cells; conditions: Homo sapiens
HEK293 [6] = experiment: cells; conditions: Homo sapiens; remark: listed apart in the source
Vero [7] = experiment: cells; type: functional; conditions: Chlorocebus sabaeus
Vero [8] = experiment: cells; type: functional, cell-based; conditions: Chlorocebus sabaeus
[9] = Luminescence Cell-Based Dose Response HTS to Identify Activators of Luciferase Translation or Activity in H4 […] Cells. [Related pubchem assays: 1829 (Project Summary), 1814 (Primary HTS)]; type: functional
[10] = target: T2, Microphthalmia-associated transcription factor (Homo sapiens, UniProt O75030); experiment: TRPM1 promoter luciferase signal decrease, dose response, MITF inhibitor project, cell-based, SK-MEL-5, cherry-picked, set 3 (AID 493073); type: functional
T2 sequence (O75030 whole entry): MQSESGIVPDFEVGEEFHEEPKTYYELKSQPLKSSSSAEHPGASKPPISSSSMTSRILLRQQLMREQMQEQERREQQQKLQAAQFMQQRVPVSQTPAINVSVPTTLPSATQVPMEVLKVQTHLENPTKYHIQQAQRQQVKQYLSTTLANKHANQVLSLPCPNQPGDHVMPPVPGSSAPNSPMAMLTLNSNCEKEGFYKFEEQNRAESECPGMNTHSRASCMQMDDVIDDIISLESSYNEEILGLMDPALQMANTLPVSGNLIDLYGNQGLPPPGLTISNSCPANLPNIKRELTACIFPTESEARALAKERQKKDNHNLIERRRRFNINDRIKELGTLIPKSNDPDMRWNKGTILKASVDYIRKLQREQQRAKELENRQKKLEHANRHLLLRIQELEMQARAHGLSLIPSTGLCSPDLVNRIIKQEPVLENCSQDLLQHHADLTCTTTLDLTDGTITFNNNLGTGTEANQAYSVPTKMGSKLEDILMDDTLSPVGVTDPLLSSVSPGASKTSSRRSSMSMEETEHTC

H4 = experiment: Luminescence Cell-Based Dose Response HTS to Identify Activators of 5'UTR Stem-Loop Driven Prion Protein mRNA Translation in H4 Neuroglioblastoma Cells. [Related pubchem assays: 1829 (Project Summary), 1814 (Primary HTS)]; type: functional; conditions: Homo sapiens
Tumor necrosis factor = Tumor necrosis factor (Homo sapiens, UniProt P01375); experiment: TNFa-triggered NF-kB activation inhibitors, SAR follow-up, cell-based, revised (AID 2337); type: functional
Tumor necrosis factor, sequence (P01375 whole entry, the tested form may be a part): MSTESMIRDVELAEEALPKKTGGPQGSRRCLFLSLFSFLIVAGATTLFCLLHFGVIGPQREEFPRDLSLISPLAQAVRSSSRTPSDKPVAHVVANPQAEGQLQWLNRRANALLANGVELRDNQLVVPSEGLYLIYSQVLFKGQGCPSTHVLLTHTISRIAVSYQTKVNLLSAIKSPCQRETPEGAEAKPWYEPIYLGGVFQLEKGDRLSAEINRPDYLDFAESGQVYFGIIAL

[11] = target: Nucleotide-binding oligomerization domain-containing protein 1 (Homo sapiens, UniProt Q9Y239); experiment: NOD1 signaling inhibitors, SAR follow-up, revised (AID 2333); type: functional
Nucleotide-binding oligomerization domain-containing protein 1, sequence (Q9Y239 whole entry, the tested form may be a part): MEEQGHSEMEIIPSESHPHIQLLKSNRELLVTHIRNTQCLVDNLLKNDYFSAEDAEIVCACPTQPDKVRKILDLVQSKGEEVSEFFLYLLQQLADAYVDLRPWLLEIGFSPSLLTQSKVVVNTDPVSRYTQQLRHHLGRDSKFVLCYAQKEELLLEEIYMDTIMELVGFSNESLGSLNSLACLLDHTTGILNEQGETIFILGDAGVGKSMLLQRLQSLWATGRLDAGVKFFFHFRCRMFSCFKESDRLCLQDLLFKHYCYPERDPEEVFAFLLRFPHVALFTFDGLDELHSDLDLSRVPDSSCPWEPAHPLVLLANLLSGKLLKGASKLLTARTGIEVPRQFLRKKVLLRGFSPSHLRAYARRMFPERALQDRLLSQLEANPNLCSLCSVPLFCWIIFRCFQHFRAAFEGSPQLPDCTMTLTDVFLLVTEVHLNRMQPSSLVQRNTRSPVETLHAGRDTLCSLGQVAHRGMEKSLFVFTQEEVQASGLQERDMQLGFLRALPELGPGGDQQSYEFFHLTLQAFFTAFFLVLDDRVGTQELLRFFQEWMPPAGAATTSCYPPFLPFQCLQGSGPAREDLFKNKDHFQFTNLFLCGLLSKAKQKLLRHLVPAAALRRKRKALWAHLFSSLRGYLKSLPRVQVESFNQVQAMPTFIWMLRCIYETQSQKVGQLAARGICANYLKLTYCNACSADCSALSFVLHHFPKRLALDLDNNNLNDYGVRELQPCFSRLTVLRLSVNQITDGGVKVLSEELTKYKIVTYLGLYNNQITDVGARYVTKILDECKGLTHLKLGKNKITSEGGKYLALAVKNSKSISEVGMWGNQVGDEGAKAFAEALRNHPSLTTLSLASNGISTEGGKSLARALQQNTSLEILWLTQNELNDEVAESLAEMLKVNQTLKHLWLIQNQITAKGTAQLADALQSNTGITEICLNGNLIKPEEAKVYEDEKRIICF

HEK293 [12] = experiment: cells; conditions: Homo sapiens; remark: listed apart in the source
[13] = target: Nucleotide-binding oligomerization domain-containing protein 2 (Homo sapiens, UniProt Q9HC29); experiment: PubChem AID 2334; type: functional
Nucleotide-binding oligomerization domain-containing protein 2, sequence (Q9HC29 whole entry, the tested form may be a part): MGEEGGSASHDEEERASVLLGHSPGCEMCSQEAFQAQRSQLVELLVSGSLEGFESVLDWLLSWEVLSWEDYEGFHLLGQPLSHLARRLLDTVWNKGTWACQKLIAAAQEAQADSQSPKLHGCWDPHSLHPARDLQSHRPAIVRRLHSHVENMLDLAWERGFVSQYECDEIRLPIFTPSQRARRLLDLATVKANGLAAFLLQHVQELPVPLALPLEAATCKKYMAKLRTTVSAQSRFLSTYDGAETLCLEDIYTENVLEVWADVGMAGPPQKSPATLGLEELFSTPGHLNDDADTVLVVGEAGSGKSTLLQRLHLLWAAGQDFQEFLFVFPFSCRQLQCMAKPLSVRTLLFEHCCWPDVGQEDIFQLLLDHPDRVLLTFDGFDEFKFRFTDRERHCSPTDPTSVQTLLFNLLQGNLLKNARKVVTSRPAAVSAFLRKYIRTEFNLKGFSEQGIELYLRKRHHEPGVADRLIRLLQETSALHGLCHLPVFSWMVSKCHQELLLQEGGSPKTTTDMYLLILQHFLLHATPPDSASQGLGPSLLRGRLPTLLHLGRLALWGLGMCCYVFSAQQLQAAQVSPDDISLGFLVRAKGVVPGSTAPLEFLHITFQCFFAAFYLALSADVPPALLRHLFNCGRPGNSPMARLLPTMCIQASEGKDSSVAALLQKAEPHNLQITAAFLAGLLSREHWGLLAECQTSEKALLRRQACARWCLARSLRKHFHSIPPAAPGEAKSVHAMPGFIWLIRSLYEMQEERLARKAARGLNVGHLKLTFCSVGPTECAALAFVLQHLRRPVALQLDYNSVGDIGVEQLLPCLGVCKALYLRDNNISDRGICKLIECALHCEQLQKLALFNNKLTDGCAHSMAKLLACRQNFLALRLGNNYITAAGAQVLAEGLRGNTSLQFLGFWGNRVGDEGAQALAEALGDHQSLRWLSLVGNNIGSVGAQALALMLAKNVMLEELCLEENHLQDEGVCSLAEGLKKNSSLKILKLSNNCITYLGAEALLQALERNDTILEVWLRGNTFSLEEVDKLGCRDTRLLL

[14] = target: T3, Ubiquitin-conjugating enzyme E2 N (Homo sapiens, UniProt P61088); type: functional
T3 sequence (P61088 whole entry): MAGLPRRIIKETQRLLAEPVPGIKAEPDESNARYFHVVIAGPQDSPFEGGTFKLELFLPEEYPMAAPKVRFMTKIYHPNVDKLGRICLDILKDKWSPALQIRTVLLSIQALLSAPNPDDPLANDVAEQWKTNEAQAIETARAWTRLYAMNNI

[15] = target: T3, Ubiquitin-conjugating enzyme E2 N; type: functional; remark: listed apart in the source
[16] = target: T4, Apoptotic protease-activating factor 1 (Homo sapiens, UniProt O14727); type: functional
T4 sequence (O14727 whole entry): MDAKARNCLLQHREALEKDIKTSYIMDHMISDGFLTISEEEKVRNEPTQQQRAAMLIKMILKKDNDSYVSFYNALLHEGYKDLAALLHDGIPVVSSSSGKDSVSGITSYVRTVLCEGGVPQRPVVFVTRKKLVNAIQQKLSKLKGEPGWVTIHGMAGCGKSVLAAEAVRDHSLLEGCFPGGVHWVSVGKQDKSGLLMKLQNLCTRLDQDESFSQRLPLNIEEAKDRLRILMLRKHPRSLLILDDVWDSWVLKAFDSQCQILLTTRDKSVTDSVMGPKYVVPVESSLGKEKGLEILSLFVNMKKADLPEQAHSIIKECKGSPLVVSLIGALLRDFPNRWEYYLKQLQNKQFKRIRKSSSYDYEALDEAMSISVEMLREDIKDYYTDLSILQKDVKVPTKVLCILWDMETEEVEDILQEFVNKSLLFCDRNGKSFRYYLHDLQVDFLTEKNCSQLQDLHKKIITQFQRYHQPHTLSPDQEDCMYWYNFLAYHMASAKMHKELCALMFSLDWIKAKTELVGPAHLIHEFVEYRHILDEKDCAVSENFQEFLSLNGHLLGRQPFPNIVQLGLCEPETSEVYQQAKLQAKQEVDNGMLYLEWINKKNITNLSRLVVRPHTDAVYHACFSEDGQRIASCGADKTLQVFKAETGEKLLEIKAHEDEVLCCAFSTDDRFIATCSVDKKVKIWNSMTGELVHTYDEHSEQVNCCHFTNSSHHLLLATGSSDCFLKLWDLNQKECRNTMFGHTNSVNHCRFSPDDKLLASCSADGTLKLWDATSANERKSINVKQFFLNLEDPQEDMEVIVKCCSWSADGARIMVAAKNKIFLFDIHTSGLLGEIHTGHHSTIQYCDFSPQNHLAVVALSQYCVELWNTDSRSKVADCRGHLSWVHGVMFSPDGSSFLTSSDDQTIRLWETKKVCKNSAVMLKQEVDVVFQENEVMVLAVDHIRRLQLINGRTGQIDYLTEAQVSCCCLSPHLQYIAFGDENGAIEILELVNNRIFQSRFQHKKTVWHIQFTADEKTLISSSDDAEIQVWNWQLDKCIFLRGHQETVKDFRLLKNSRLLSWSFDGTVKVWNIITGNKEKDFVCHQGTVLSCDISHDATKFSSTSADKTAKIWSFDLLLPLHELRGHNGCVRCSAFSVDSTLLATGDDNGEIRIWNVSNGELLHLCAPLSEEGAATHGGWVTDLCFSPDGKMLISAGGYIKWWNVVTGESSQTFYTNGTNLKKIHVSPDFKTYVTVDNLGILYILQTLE

Bcl-2-related protein A1 = target: T5, Bcl-2-related protein A1 (Mus musculus, UniProt Q07440); type: functional;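 also: confirmatory dose–response counterscreen on Bfl-1, used to check hits from a UBC13 polyubiquitin inhibitor campaign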
T5 sequence (Q07440 whole entry): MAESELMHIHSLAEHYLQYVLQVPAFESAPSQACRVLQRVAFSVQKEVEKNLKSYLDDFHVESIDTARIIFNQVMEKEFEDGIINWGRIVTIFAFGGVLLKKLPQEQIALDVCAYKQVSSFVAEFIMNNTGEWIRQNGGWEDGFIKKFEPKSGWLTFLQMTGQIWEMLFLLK

Escherichia coli [17] = experiment: microbe, parasite or virus in culture; remark: listed apart in the source
INS1 = experiment: beta cell apoptosis inhibitors, cytokine rescue, dose response, luminescence, retest (AID 449756); type: functional, cell-based; conditions: Rattus norvegicus;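 also: cell death triggered by IL-1 beta plus TNF-alpha plus IFN-gamma mixture; protective hits raise ATP signal compared with cytokine alone wells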

Mu-type opioid receptor, sequence (P35372 whole entry): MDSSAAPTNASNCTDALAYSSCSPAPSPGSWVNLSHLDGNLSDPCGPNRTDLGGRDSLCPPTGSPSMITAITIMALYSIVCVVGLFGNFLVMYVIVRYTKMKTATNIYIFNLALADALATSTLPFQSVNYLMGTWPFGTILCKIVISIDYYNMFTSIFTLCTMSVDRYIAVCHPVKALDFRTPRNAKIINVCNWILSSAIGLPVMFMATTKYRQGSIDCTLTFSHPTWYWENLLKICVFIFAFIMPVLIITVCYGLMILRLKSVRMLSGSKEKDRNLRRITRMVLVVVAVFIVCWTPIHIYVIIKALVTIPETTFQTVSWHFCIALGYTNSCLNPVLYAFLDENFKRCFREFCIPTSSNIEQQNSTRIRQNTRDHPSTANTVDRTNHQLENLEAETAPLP

Cc1ccc(-n2cc(CNC(C)c3cnn(C)c3)c(-c3ccc(F)cc3)n2)cc1 (stereo not given)
EC50 (Mu-type opioid receptor): 2.42 µM (active)
EC50 [1]: > 92.5 µM (inactive)
EC50 [2]: 37.3 µM (inactive)
EC50 [3]: 1.88 µM (active)

COc1ccc(C2CC(c3ccc(OC)cc3)n3nc(NC(=O)c4cccs4)nc3N2)cc1 (stereo not given)
EC50 (Mu-type opioid receptor): > 92.5 µM (inactive)
EC50 [1]: > 92.5 µM (inactive)
EC50 [2]: > 92.5 µM (inactive)

Cc1ccc(Cn2nc(C)c(NC(=O)c3cc(C)no3)c2C)cc1
AC50 (Escherichia coli [4]): > 380 µM (inactive)

C=CCNc1sc(C(=O)c2ccccc2)c(N)c1-c1nc2ccccc2s1
EC50 (HEK293 [5]): > 59.7 µM (inactive)
EC50 (HEK293 [6]): > 59.7 µM (inactive)

N#C/C(=C\C=C\c1ccccc1[N+](=O)[O-])C(=O)NCc1ccccc1
CC50 (Vero [7]): 15.3 µM (active)
IC50 (Vero [8]): > 25 µM (active)
EC50 [9]: > 120 µM (not active)
AC50 [10]: 14.7 µM (active)
EC50 (H4): > 120 µM (not active)

Cn1nccc1C(=O)N[C@@H]1CCCc2c1cnn2-c1ccccc1F
IC50 (Tumor necrosis factor): > 20 µM (inactive)
IC50 [11]: 18.7 µM (active)
IC50 (HEK293 [12]): > 20 µM (inactive)
IC50 [13]: > 20 µM (inactive)

COc1ccc(C(CNC(=O)c2ccc(S(=O)(=O)Nc3ccccc3F)cc2)N(C)C)cc1 (stereo not given)
IC50 [14]: 6.59 µM (active)
IC50 [15]: 4.54 µM (active)
IC50 [16]: > 100 µM (inactive)
IC50 (Bcl-2-related protein A1): > 20 µM (inactive)

C=CCc1c(C)nc(C)nc1N/N=C/c1ccc(N(C)C)cc1
AC50 (Escherichia coli [17]): 26.4 µM (active)
AC50 (INS1): 2.54 µM (active)
